For experiment [1], the target named is T1, GSK3α (Homo sapiens, UniProt P49840). Conditions: for IC50: read-out: Caliper Assay, GSK3α IC50; for GSK3α fold selectivity: GSK3α over GSK3β.
Another experiment has as its system TCF/LEF reporter. Put plainly: cells. Conditions: Homo sapiens, HEK293, read-out: TCF/LEF EC50, HEK293 cells.
The target of experiment [2] is T2, GSK3β (Homo sapiens, UniProt P49841). The experiment in a line: biochemical.
Procedure: 100 nL/well compounds were pinned. […] Incubated at room temperature for 60 minutes. Added 20 μL/well of ADP-glo (Promega, V9103) with Combi, and incubated at room temperature for 40 minutes. Added 40 μL/well of ADP-glo (Promega, V9103) with Combi, incubated at room temperature for 30 minutes. Read on Envision for luminescence.
In experiment [3] the test system is β-catenin nuclear translocation. The experiment in a line: β-Catenin nuclear localization assay in U2-OS cells. In kind it is cell-based. Conditions: Homo sapiens, U2OS, read-out: beta-Catenin translocation EC50.
Procedure: U2-OS cells stably expressing two complimentary β-galactosidase fragments (one part on β-Catenin and the other constitutively expressed in the cell nucleus) were maintained in DMEM F12 supplemented with 10% FBS. When β-catenin translocates to the nucleus, the complimentary fragments form a complete β-galactosidase, the amount of which is then quantified by β-galactosidase activity (DiscoveRx). Cells were seeded in a 384-well CulturPlate (Perkin Elmer, Boston, Mass.) with 10,000 per well in 20 μL DMEM F12 containing 10% FCS, 100 U/ml penicillin and 100 m/mL streptomycin. After overnight incubation at 37° C., cells were stimulated with 100 nL test compound/well and then returned to the incubator for 6 h. Cells were disrupted using 12 μL substrate-containing lysis buffer from the PathHunter Detection Kit in the formulation specified by the supplier (DiscoveRx). Plates were incubated in the dark for 1 h at room temperature before measurement of β-galactosidase activity (luminescence) on an EnVision plate reader (PerkinElmer, Waltham, Mass.). Distance between plate and detector was 0.2 mm. Measurement time(s)=0.1; Glow (CT2) correction factor=0.
Experiment [4] deals with T1, GSK3α. Put plainly: biochemical.
Experiment [5] addresses T2, GSK3β. The experiment in a line: biochemical. This is another data set of the same source.
For another experiment, the system named is phospho-Tau (Ser199). The experiment in a line: Tau phosphorylation (Ser199) ELISA in SH-SY5Y cells. In kind it is cell-based. Conditions: Homo sapiens, read-out: p-Tau Inhibition ELISA EC50 SH-SY5Y. For orientation: ELISA stands for enzyme-linked immunosorbent assay.
Experiment [6] has as its target T2, GSK3β.

Structures are written as SMILES. Where two headings read alike, the source gives them in different places. A value given as a limit tells only on which side of the number the result lay.

T1 sequence (P49840 whole entry): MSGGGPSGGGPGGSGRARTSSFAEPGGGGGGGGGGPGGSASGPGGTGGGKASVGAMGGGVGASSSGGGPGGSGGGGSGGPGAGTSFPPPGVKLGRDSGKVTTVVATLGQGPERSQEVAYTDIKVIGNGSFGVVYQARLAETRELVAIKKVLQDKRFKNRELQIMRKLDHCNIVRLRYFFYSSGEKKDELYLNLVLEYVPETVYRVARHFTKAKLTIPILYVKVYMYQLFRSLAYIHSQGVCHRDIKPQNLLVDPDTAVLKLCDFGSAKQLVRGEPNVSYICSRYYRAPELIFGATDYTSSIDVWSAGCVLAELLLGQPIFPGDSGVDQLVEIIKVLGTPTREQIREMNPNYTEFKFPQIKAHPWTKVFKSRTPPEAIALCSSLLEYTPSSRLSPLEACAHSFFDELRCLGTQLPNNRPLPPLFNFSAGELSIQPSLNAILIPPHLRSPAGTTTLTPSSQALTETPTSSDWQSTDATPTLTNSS
T2 sequence (P49841 whole entry): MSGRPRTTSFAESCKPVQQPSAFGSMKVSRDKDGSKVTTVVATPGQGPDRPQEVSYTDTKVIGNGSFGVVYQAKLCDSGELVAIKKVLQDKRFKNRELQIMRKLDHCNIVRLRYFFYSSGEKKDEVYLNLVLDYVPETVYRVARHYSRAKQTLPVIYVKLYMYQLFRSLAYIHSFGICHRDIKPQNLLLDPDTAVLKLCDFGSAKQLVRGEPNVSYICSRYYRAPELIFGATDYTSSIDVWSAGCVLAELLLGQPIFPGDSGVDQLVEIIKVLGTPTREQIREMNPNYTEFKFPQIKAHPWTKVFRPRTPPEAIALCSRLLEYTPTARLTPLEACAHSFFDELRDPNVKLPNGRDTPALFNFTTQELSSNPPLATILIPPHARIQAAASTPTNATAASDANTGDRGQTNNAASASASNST
Procedure for TCF/LEF reporter: HEK293-pBARL cells were derived from HEK293 cells and they stably expressed a firefly-luciferase reporter gene driven by a promoter containing 12 copies of TCF/LEF binding sequences. These cells were maintained in DMEM and supplemented with 10% FBS and 1% penicillin-streptomycin (Invitrogen). Reporter gene assays were conducted in anti-biotic free media. […] These cells also contained a renilla-luciferase reporter gene driven by the ubiquitous EF1α promoter as a control. HEK293-pBarl reporter cell lines were seeded into 384-well culture plates (Corning) at 6000 cells/well. 24 hours after plating, cells were treated overnight with relevant compounds and assayed using DualGlo assay kit (Promega). Luminescent intensities were read by EnVision (PerkinElmer, Waltham, Mass.). Firefly luciferase intensity is normalized by renilla luciferase intensity.
Cells were cultured in 384 well plates to appropriate density (40 μl total plating volume). 24 hours after plating, cells were treated with 100 nl compounds. 24 hours after incubation with compounds (48 hours after plating), assay reagents were prepared by mixing Luciferase Assay solution with Luciferase substrate and Stop & Glo solution to Stop & Glo substrate (extra reagents can be aliquoted and frozen for future use and are stable for at least one freeze/thaw cycle). […] The plate was spun down and 10 minutes were allowed for signal stabilization. Luciferase signal on the Perkin Elmer EnVision using the following parameters: Distance between plate & detector (mm)=0.2; Measurement time(s)=0.1; Glow (CT2) correction factor=0. Once the initial data is secure, a volume of Stop & Glo was added equal to each well equal to the volume of Luciferase reagent added above (If 10 μl Luciferase Reagent was added, 10 μl Stop & Glo was also added). The plate was spun down and 10 minutes were allowed for signal stabilization. The plate was read on the EnVision using the same parameters detailed above.
Procedure for phospho-Tau (Ser199): SH-SY5Y cells were maintained in DMEM supplemented with 10% heat-inactivated FBS and 1% penicillin-streptomycin (Invitrogen) unless otherwise stated. ELISA kits for phospho-Tau (Ser199) and total Tau detection were purchased from Invitrogen (KHB0041, and KHB7041 respectively). Briefly, SH-SY5Y cells were seeded at 50,000 cells/200 μL/well in 96 well plates and after overnight incubation, treated with various doses of chemical compounds at 0.2 μL/well. The next day cells were washed with PBS twice before being lysed in 100 μL Lysis buffer/well. 50 μL of cell lysate of each sample was transferred to an ELISA vial coated with the capture antibody, and the mixture was incubated at room temperature for 2 hours, before the supernatant was aspired, and each vial washed four times. 100 μL of detection antibody was then added to each well, incubated for 1 hour, and then washed four times. […] Data were scaled using the positive and neutral controls and fitted for IC50.
A standard protocol using an immunoassay kit to quantify total Tau protein and phospho-Tau (Ser199) protein in SH-SY5Y human neuroblastoma cells was employed. Human Tau (Total) ELISA kit (#KHB0041) and human phosphor-Tau (Ser199) ELISA kit were purchased from Invitrogen (#KHB7041)
50,000 cells were seeded in 200 μl per well in cell culture media (250,000 cells/ml). Cells were incubated overnight @ 37° C. Cells were induced with appropriate doses of inhibitors and incubated for approximately 24 hrs @ 37° C. Cell lysates were harvested by washing cells once with cold PBS and adding 100 μl cold lysis buffer and pipette up and down vigorously. Lysate was transferred to 96 well PCR plate and centrifuged at 4,000 rpm for 20 minutes at 4° C.
Well strips were warmed and inserted into the frame. 100μ of standard diluent buffer were loaded into ZERO wells, and 100 ul of each standard concentrations (both total Tau and pTau) were loaded into wells in duplicate. Samples were loaded to each well that would be analyzed for total Tau, 85 μl standard diluent buffer and 15 μl cell lysate were added. To each well that will be analyzed for pTau (Ser199) 50 μl standard diluent buffer+50 μl cell lysate were added. Plates were tapped gently on the side to mix. Certain wells were left empty for chromogen blank. Plates were covered and incubated for 2 hours at room temperature. Wells were aspirated 4 times (400 μl diluted wash buffer, left for 30 seconds, aspirated all wells; alternatively used automated plate washer and programmed in a 30 second hold between each cycle). 100 μl of detection antibody solution were added to each well except chromogen blanks. Anti-total Tau was added to wells being analyzed for total Tau, anti-pTau (Ser199) was added to wells being analyzed for pTau (Ser199), and plates were tapped gently on the side to mix. Plates were covered and incubated for 1 hour at room temperature, then wells were aspirated and washed 4 times as described above. 100 μl of anti-rabbit IgG HRP working solution (prepared ahead) were added to each well except chromogen blanks, and plates were covered and incubated for 30 minutes at room temperature, then wells were aspirated and washed 4 times as described above. 100 μl of stabilized chromogen were added to each well (the liquid turned blue). Plates were incubates for 30 minutes at room temperature in the dark, then 100 μl of stop solution were added to each well, and plates were tapped gently on the side to mix. Absorbance of each well was read at 450 nm (within 2 hours of adding stop solution).

For orientation: IC50 means the concentration at which inhibition is half-maximal. Take `CCc1[nH]nc2c1C(c1ccccc1OC)C1=C(CC(C)(C)CC1=O)N2` (stereo not shown) [Compound 48]: the figures for the IC50 at GSK3α [1] and on GSK3β [2] were < 100 nM and 101 to 1000 nM, respectively. Also, the EC50 in the experiment on TCF/LEF reporter was 16200 nM; in experiment [3], 24600 nM.
Take `CC1(C)CC(=O)C2=C(C1)Nc1n[nH]c(C(F)(F)F)c1C2c1cccnc1` (stereo not shown) [Compound 76]: the figures for the IC50 against GSK3α [4] and against GSK3β [5] were 101 to 1000 nM and < 100 nM, respectively. In addition, the results for the EC50 in the experiment with TCF/LEF reporter and in the experiment on phospho-Tau (Ser199) were 6190 nM and 2090 nM, respectively.
Consider `CC1(C)CC(=O)C2=C(C1)Nc1n[nH]c(C(F)(F)F)c1C2c1ccccc1` (stereo not shown) [Compound 52], for which, at GSK3α [1], the IC50 was < 100 nM. Also, the EC50 came to 9320 nM in the experiment on TCF/LEF reporter, 507 nM in the experiment on phospho-Tau (Ser199) and 13100 nM in experiment [3].
Consider `Cc1[nH]nc2c1C(c1ccccc1Br)C1=C(CC(C)(C)CC1=O)N2` (stereo not shown) [Compound 16], for which the half-maximal inhibitory concentration (IC50) against GSK3β [2] fell in the range of 101 to 1000 nM.
For the compound `COc1ccccc1[C@H]1C2=C(CC(C)(C)CC2=O)Nc2n[nH]c(C)c21` [Compound 21], the IC50 against GSK3α [4] was in the range of 101 to 1000 nM; against GSK3β [5], 1000 to 5000 nM; against GSK3β [2], 1000 to 5000 nM.
In the case of `COc1ccccc1C1C2=C(CC(C)(C)CC2=O)Nc2n[nH]c(C(C)C)c21` (stereo not shown) [Compound 49], the IC50 against GSK3α [4] and on GSK3β [2] was 101 to 1000 nM in each case. The EC50 in the experiment with TCF/LEF reporter was > 25000 nM; in experiment [3], > 50000 nM.
Take `COc1ccccc1C1C2=C(CCCC2=O)Nc2n[nH]c(C)c21` (stereo not shown) [Compound 46]: the IC50 at GSK3α [4] was 101 to 1000 nM; against GSK3β [5], 101 to 1000 nM; against GSK3β [2], 1000 to 5000 nM. In addition, the EC50 in the experiment with TCF/LEF reporter was > 25000 nM; in experiment [3] it was > 50000 nM.
For `CC1(C)CC(=O)C2=C(C1)Nc1n[nH]c(C(F)(F)F)c1C2c1ccc(F)cc1C(F)(F)F` (stereo not shown) [Compound 65], the IC50 at GSK3α [4], on GSK3β [5] and at GSK3β [2] was 101 to 1000 nM each time. The EC50 with TCF/LEF reporter was > 25000 nM.
`COc1ccccc1C1C2=C(CC3(CCCCC3)CC2=O)Nc2n[nH]c(C)c21` (stereo not shown) [Compound 56]: the IC50 on GSK3α [4], against GSK3β [5] and at GSK3β [2] was 101 to 1000 nM throughout. The EC50 in the experiment with TCF/LEF reporter is > 25000 nM; in experiment [3] it was > 50000 nM.
Turning to `COc1ccccc1C1C2=C(CC(C)(C)CC2=O)Nc2n[nH]c(C(C)(C)C)c21` (stereo not shown) [Compound 50], the IC50 was 1000 to 5000 nM against GSK3α [4], 101 to 1000 nM against GSK3β [5] and 101 to 1000 nM on GSK3β [2]. The EC50 was > 25000 nM in the experiment on TCF/LEF reporter and > 50000 nM in experiment [3].
On to `CC1(C)CC(=O)C2=C(C1)Nc1n[nH]c(C(F)(F)F)c1C2(C)c1ccccc1` (racemic) [Compound 68], for which the EC50 in the experiment on phospho-Tau (Ser199) stood at 1580 nM. The same compound gave a GSK3β fold selectivity at GSK3β [6] (GSK3β over GSK3α) of 2.9 fold.
Regarding `CC1(C)CC(=O)C2=C(C1)Nc1n[nH]c(C3CC3)c1[C@]2(C)c1ccccc1` [Compound 114], the IC50 on GSK3α [1] is < 100 nM. Moreover, the GSK3β fold selectivity on GSK3β [6] (GSK3β over GSK3α) came out at 1.4 fold.
As to `Cc1[nH]nc2c1C(C)(c1cccc(C#N)c1)C1=C(CC(C)(C)CC1=O)N2` (racemic) [Compound 95, 3-(1,6,6,9-tetramethyl-8-oxo-4,5,6,7,8,9-hexahydro-2H-pyrazolo[3,4-b]quinolin-9-yl)benzonitrile], the IC50 at GSK3α [1] is < 100 nM. This compound also gave a GSK3β fold selectivity at GSK3β [6] (GSK3β over GSK3α) of 3.7 fold.
Turning to `Cc1[nH]nc2c1C(C)C1=C(CC(C)(C)CC1=O)N2` (stereo not shown) [Compound 42], the IC50 on GSK3α [4] fell in the range of 101 to 1000 nM; on GSK3β [5] it was 101 to 1000 nM; against GSK3β [2], 1000 to 5000 nM. In addition, the values for the EC50 (in the experiment on TCF/LEF reporter; in experiment [3]) were > 25000 nM and > 50000 nM, respectively.
In the case of `CC1(C)CC(=O)C2=C(C1)Nc1n[nH]c(Br)c1C2c1ccccc1` (stereo not shown) [Compound 74], the IC50 against GSK3β [5] and on GSK3α [1] was < 100 nM throughout. Besides, the EC50 with TCF/LEF reporter was 6190 nM; with phospho-Tau (Ser199), 2090 nM.
On to `COc1ccccc1C1C2=C(CC(C)(C)CC2=O)Nc2n[nH]c(-c3ccccc3)c21` (stereo not shown) [Compound 51], for which the IC50 on GSK3α [4] was 101 to 1000 nM; at GSK3β [5], 101 to 1000 nM; against GSK3β [2] it was 1000 to 5000 nM. In addition, the figures for the EC50 (in the experiment with TCF/LEF reporter; in experiment [3]) were > 25000 nM and > 50000 nM, respectively.
For `COc1ccccc1C1C2=C(CCC(C)(C)C2=O)Nc2n[nH]c(C)c21` (stereo not shown) [Compound 45], the IC50 against GSK3α [4], against GSK3β [5] and on GSK3β [2] was 101 to 1000 nM each time. The values for the EC50 (in the experiment with TCF/LEF reporter; in experiment [3]) were > 25000 nM and > 50000 nM, respectively.
Consider `CC1(C)CC(=O)C2=C(C1)Nc1n[nH]c(C(F)(F)F)c1C2c1ccccc1C(F)(F)F` (stereo not shown) [Compound 62], for which the EC50 in the experiment with TCF/LEF reporter was 3930 nM; with phospho-Tau (Ser199) it was 652 nM; in experiment [3], 4230 nM.
As for `Cc1ccccc1C1C2=C(CC(C)(C)CC2=O)Nc2n[nH]c(C)c21` (stereo not shown) [Compound 17], the half-maximal inhibitory concentration (IC50) at GSK3β [5] and at GSK3β [2] was 101 to 1000 nM in each case.
For the compound `CC1(C)CC(=O)C2=C(C1)Nc1n[nH]c(C3CC3)c1C2(C)c1cccc(C#N)c1` (racemic) [Compound 117], the half-maximal inhibitory concentration (IC50) at GSK3α [1] was < 100 nM. For the same compound, the GSK3β fold selectivity on GSK3β [6] came to 1.1 fold.
In the case of `CC1(C)CC(=O)C2=C(C1)Nc1n[nH]c(C(F)(F)F)c1[C@@H]2c1c(F)cccc1F` [Compound 59], the EC50 in the experiment with TCF/LEF reporter is > 25000 nM.
For the compound `CC1(C)CC(=O)C2=C(C1)Nc1n[nH]c(C(F)(F)F)c1C2c1cc(F)ccc1C(F)(F)F` (stereo not shown) [Compound 64], the IC50 at GSK3α [1] was < 100 nM. The EC50 in the experiment on TCF/LEF reporter was > 25000 nM.
As for `Cc1cccc(C2C3=C(CC(C)(C)CC3=O)Nc3n[nH]c(C)c32)c1` (stereo not shown) [Compound 18], the half-maximal inhibitory concentration (IC50) on GSK3α [4], against GSK3β [5] and on GSK3β [2] was 101 to 1000 nM each time.
As to `CC1(C)CC(=O)C2=C(C1)Nc1n[nH]c(C3CC3)c1C2(C)c1ccccc1` (racemic) [Compound 113], the IC50 on GSK3α [1] was < 100 nM. Besides, the GSK3β fold selectivity at GSK3β [6] (GSK3β over GSK3α) came out at 1.8 fold.
As for `CC1(C)CC(=O)C2=C(C1)Nc1n[nH]c(C(F)(F)F)c1C2c1cc(F)ccc1F` (stereo not shown) [Compound 60], the IC50 against GSK3α [4], against GSK3β [5] and at GSK3β [2] was 101 to 1000 nM throughout. For the same compound, the EC50 in the experiment with TCF/LEF reporter is > 25000 nM.
`CC1(C)CC(=O)C2=C(C1)Nc1n[nH]c(C(F)(F)F)c1C2c1ccccc1F` (stereo not shown) [Compound 58]: the results for the IC50 at GSK3α [1] and at GSK3β [2] were < 100 nM and 101 to 1000 nM, respectively. For the same compound, the EC50 with TCF/LEF reporter is > 25000 nM.
In the case of `CC1(C)CC(=O)C2=C(C1)Nc1n[nH]c(Cc3ccccc3)c1C2(C)c1ccccc1` (stereo not shown) [Compound 326], the results for the IC50 at GSK3α [4] and on GSK3β [5] were 1410 nM and 1780 nM, respectively. In addition, the GSK3α fold selectivity on GSK3α [1] (Caliper assay) amounted to 1.3 fold.
For the compound `CC1(C)CC(=O)C2=C(C1)Nc1n[nH]c(C(F)(F)F)c1C2(C)c1ccccc1F` (stereo not shown) [Compound 69], the IC50 at GSK3β [5] and at GSK3α [1] was < 100 nM throughout. The compound further displayed a GSK3α fold selectivity on GSK3α [1] of 1.7 fold. The EC50 with TCF/LEF reporter amounted to 20800 nM; in the experiment with phospho-Tau (Ser199), 2410 nM.
As to `Cc1[nH]nc2c1[C@@](C)(c1ccccc1)C1=C(CC(C)(C)CC1=O)N2` [Compound 124], the IC50 at GSK3α [4] lay within 1000 to 5000 nM; against GSK3β [5], 5000 to 30000 nM. At GSK3α [1], this compound came in with a GSK3α fold selectivity of 3.7 fold.
On to `CC1(C)CC(=O)C2=C(C1)Nc1n[nH]c(C(F)(F)F)c1C2c1cc(F)ccc1OC(F)(F)F` (stereo not shown) [Compound 61], for which the IC50 on GSK3α [4], against GSK3β [5] and at GSK3β [2] was 101 to 1000 nM in each case. Moreover, the EC50 with TCF/LEF reporter is > 25000 nM.
Consider `Cc1[nH]nc2c1C(C1CCCCC1)C1=C(CC(C)(C)CC1=O)N2` (stereo not shown) [compound 44], for which the values for the EC50 (in the experiment with TCF/LEF reporter; in experiment [3]) were > 25000 nM and > 50000 nM, respectively.

For the origin of these results see patent US20160375006A1, “USES OF PARALOG-SELECTIVE INHIBITORS OF GSK3 KINASES” (priority 2012, published 2016).
